Data as given in patent US10239894B2, “Inhibitors of indoleamine 2,3-dioxygenase” (GLAXOSMITHKLINE INTELLECTUAL PROPERTY DEVELOPMENT LIMITED, priority 2015, dated 2019).

Legend:
Recombinant human IDO1 = biological target: T1, Recombinant human IDO1 (Homo sapiens, UniProt P14902); test: IDOi enzyme assay (absorbance readout of NFK formation at 320 nm); format: biochemical; settings: recombinant human IDO1, 2 mM D-tryptophan, 30 min preincubation; read-out: pXC50 enzyme (converted)
T1 construct: made in house; host or cells: E. coli
T1 sequence (P14902 whole entry): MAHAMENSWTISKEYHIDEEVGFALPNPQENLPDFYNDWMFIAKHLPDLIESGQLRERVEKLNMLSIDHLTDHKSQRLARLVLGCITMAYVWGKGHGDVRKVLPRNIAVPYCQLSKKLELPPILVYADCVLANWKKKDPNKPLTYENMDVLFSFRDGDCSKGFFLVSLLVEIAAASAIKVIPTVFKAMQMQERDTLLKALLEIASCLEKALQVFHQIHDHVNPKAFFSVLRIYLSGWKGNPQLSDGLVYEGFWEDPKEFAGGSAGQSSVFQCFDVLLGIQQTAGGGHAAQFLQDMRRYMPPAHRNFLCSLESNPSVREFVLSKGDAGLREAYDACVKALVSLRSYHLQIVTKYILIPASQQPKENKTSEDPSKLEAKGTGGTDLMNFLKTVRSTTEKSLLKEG

[1] = biological target: T2, indoleamine 2, 3-dioxygenase (IDO1) in IFN-γ stimulated HeLa cells (Homo sapiens, UniProt P14902); test: HeLa IDOi assay (kynurenine by mass spectrometry); format: cell-based; settings: HeLa cells stimulated with IFN-γ, 2 days, kynurenine by MS; read-out: pXC50 HeLa (converted)
T2 construct: host or cells: HeLa cells stimulated with IFN-γ
T2 sequence (P14902 whole entry): as above

[2] = In vivo pharmacokinetics, mouse clearance
[3] = biological target: T3, indoleamine 2, 3-dioxygenase (IDO1) in IFN-γ/LPS stimulated human peripheral blood mononuclear cells (PBMC) (Homo sapiens, UniProt P14902); test: PBMC IDOi assay (kynurenine by mass spectrometry); format: cell-based; settings: human PBMC stimulated with IFN-γ and LPS, 2 days, kynurenine by MS; read-out: pXC50 PBMC (converted)
T3 construct: host or cells: human PBMC stimulated with IFN-γ and LPS
T3 sequence (P14902 whole entry): as above

[4] = In vivo pharmacokinetics, rat clearance; settings: plasma, intravenous, male nonfasted Wistar Han rats, doses 1 mg/kg i.v. and 5 mg/kg p.o.
Method: In vivo pharmacokinetic methods, rat: Male nonfasted Wistar Han rats (n=3) received test article at doses of 1 mg/kg i.v. (1 mL/kg) and 5 mg/kg p.o. (5 ml/kg) formulated in a DMSO/solutol/10% hydroxyl-propyl β cyclodextrin (10:10:80) dosing vehicle. For all animals,food and water was provided ad libitum. Blood samples were withdrawn from a surgically-implanted venous cannula at timed intervals for 24 h after dose administration, treated with EDTA, and centrifuged to harvest plasma for LC/MS/MS analysis. Plasma concentration-time data for individual rats were analyzed by noncompartmental analysis using the Phoenix™ WinNonlin® (version 6.2.1, Pharsight Corp., St. Louis, Mo.) software to generate pharmacokinetic parameter estimates.

[5] = biological target: T4, indoleamine 2, 3-dioxygenase (IDO1) in IFN-γ/LPS stimulated human monocyte-derived dendritic cells (MDDC) (Homo sapiens, UniProt P14902); test: IDOi MDDC assay (kynurenine by mass spectrometry); format: cell-based; settings: human MDDC stimulated with IFN-γ and LPS, 2 days, kynurenine by MS; read-out: pXC50 MDDC (converted)
T4 construct: host or cells: human monocyte-derived dendritic cells stimulated with IFN-γ and LPS
T4 sequence (P14902 whole entry): as above

Row | IC50 (Recombinant human IDO1) [nM] | IC50 [1] [nM] | clearance [2] [mL/min/kg] | IC50 [3] [nM] | clearance [4] [mL/min/kg] | IC50 [5] [nM] | SMILES
1 | 100 | 100 | 0.6 | 126 | 0.8 | 158 | O=C(NCCNc1nonc1C(=NO)Nc1ccc(F)c(Br)c1)c1cccc2c1B(O)OCC2 [Compound 1, N-(2-((4-(N-(3-bromo-4-fluorophenyl)-N′-hydroxycarbamimidoyl)-1,2,5-oxadiazol-3-yl)amino)ethyl)-1-hydroxy-3,4-dihydro-1H-benzo[c][1,2]oxaborinine-8-carboxamide]
2 | 200 | 631 | – | 501 | – | – | O=C(NCCNc1nonc1C(=NO)Nc1ccc(F)c(Br)c1)c1cccc2c1B(O)OC=C2 [Compound 2, N-(2-((4-(N-(3-Bromo-4-fluorophenyl)-N′-hydroxycarbamimidoyl)-1,2,5-oxadiazol-3-yl)amino)ethyl)-1-hydroxy-1H-benzo[c][1,2]oxaborinine-8-carboxamide]
3 | 50.1 | 158 | – | 100 | 2 | 1260 | O=C(NCCNc1nonc1C(=NO)Nc1ccc(F)c(Br)c1)c1ccc2c(c1)B(O)OCC2 [Compound 4, N-(2-((4-(N-(3-Bromo-4-fluorophenyl)-N′-hydroxycarbamimidoyl)-1,2,5-oxadiazol-3-yl)amino)ethyl)-1-hydroxy-3,4-dihydro-1H-benzo[c][1,2]oxaborinine-7-carboxamide]
4 | 79.4 | 158 | 7.1 | 100 | 4.8 | 100 | O=C(NCCNc1nonc1C(=NO)Nc1ccc(F)c(Br)c1)c1cccc2c1B(O)OC2 [Compound 6, N-(2-((4-(N-(3-Bromo-4-fluorophenyl)-N′-hydroxycarbamimidoyl)-1,2,5-oxadiazol-3-yl)amino)ethyl)-1-hydroxy-1,3-dihydrobenzo[c][1,2]oxaborole-7-carboxamide]
5 | 100 | 631 | – | 398 | 180 | – | O=C(CN1CCOB2OCc3cccc1c32)NCCNc1nonc1C(=NO)Nc1ccc(F)c(Br)c1 [Compound 7]
6 | 79.4 | 158 | – | 50.1 | 74.9 | 79.4 | O=C(NCCNc1nonc1C(=NO)Nc1ccc(F)c(Br)c1)c1ccc2c(c1)COB2O [Compound 8]

Second part, the compound before the results:

Row | SMILES | IC50 (Recombinant human IDO1) [nM] | IC50 [1] [nM] | clearance [2] [mL/min/kg] | IC50 [3] [nM] | clearance [4] [mL/min/kg] | IC50 [5] [nM]
7 | O=C(NCCNc1nonc1C(=NO)Nc1ccc(F)c(Br)c1)c1ccc2c(c1)B(O)OC=C2 [Compound 3, N-(2-((4-(N-(3-Bromo-4-fluorophenyl)-N′-hydroxycarbamimidoyl)-1,2,5-oxadiazol-3-yl)amino)ethyl)-1-hydroxy-1H-benzo[c][1,2]oxaborinine-7-carboxamide] | 79.4 | 1260 | – | 316 | 0.8 | 2000
8 | CN(Cc1cccc2c1COB2O)C(=O)CNc1nonc1C(=NO)Nc1ccc(F)c(Br)c1 [Compound 5, 2-((4-(N-(3-Bromo-4-fluorophenyl)-N′-hydroxycarbamimidoyl)-1,2,5-oxadiazol-3-yl)amino)-N-((1-hydroxy-1,3-dihydrobenzo[c][1,2]oxaborol-4-yl)methyl)-N-methylacetamide 2,2,2-trifluoroacetate] | 100 | 200 | 3.1 | 158 | 2.8 | 126
9 | O=C(NCCNc1nonc1C(=NO)Nc1ccc(F)c(Br)c1)Nc1ccc(B(O)O)cc1 [Compound 9] | 31.6 | 100 | – | 31.6 | 238 | 63.1
10 | ON=C(Nc1ccc(F)c(Br)c1)c1nonc1Nc1ccc(B(O)O)cc1 [Compound 10] | 25.1 | 158 | – | 200 | 220 | 631
11 | NS(=O)(=O)NCCNc1nonc1C(=NO)Nc1ccc(F)c(Br)c1 [Compound 11, reference compound] | – | – | 37.2 | – | 50.6 | –
